Test [1] relates to breast cancer patients. As to the kind of experiment: Response to neoadjuvant everolimus in a breast cancer cohort (GSE119262), by mTOR phenocopy status. Particulars: neoadjuvant everolimus followed by surgery. The test is classed as in vivo, human.
Test [2] relates to breast cancer patients. As to the kind of experiment: Pathologic complete response in the chemoimmunotherapy (pembrolizumab) arm of the I-SPY2 trial, by TP53 loss phenocopy status. It counts as in vivo, human. Particulars: pembrolizumab with anthracycline/taxane-based neoadjuvant chemotherapy backbone. The text has this:
In addition, we sought to identify published cohorts with pre-chemotherapy RNA profiling with pathologic response data. The majority of data we could find was in the setting of breast cancer neoadjuvant chemotherapy, where response could be assessed at the time of surgery. Our dataset evaluating clinical treatment response and the phenocopy signatures in breast cancer included 18 breast cancer cohorts with gene expression data downloaded from the Gene Expression Omnibus (GEO) with the following accession numbers: GSE22093, GSE25055, GSE41998, GSE20194, GSE4779, GSE8465, GSE66399, GSE16446, GSE20271, GSE18864, GSE25065, GSE32646, GSE164458, GSE22226, GSE192341, GSE163882, GSE34138, GSE32603, and one additional publicly available TNBC gene expression cohort^48. Finally, we utilized gene expression and clinical response data from the I-SPY2 trial as an independent clinical validation cohort for our phenocopy signatures and breast cancer neoadjuvant therapy response, also downloaded from GEO (GSE194040).
Each of the breast cancer datasets had annotations for pathologic response (pCR versus no pCR) for each sample. The TP53 phenocopy signature was then applied without modification to pre-treatment samples from each breast cancer study, with normalization/batch correction as above. […]

Consider `CO[C@H]1C[C@@H]2CC[C@@H](C)[C@@](O)(O2)C(=O)C(=O)N2CCCC[C@H]2C(=O)O[C@H]([C@H](C)C[C@@H]2CC[C@@H](OCCO)[C@H](OC)C2)CC(=O)[C@H](C)/C=C(\C)[C@@H](O)[C@@H](OC)C(=O)[C@H](C)C[C@H](C)/C=C/C=C/C=C/1C` [everolimus], for which the “tumors that responded to anti-mTOR therapy” value is given as 75.8% in the test with breast cancer patients [1] (pre-treatment non-mTOR phenocopy tumors) and 100% in the test on breast cancer patients [1] (pre-treatment samples predicted as mTOR mutation phenocopies).

Turning to pembrolizumab, the pCR rate in the test on breast cancer patients [2] (TP53 loss phenocopy samples) is 64%; in the test with breast cancer patients [2] (non-phenocopy samples) it was 28%.

Values taken from patent US20240096447A1, “METHODS OF GENERATING PHENOCOPY SIGNATURES AND USES THEREOF” (Wisconsin Alumni Research Foundation, priority 2022, published 2024).
